In US20200368247A1, “CENICRIVIROC FOR THE TREATMENT OF FIBROSIS” (Tobira Therapeutics, Inc., priority 2014, published 2020):

Assay: Study 202 fasting metabolic laboratory parameters
Assay type: in vivo, human
Source text: All abnormalities in total cholesterol, LDL cholesterol, triglycerides, or glucose were Grade 1 or Grade 2.
Mean baseline values and changes from baseline in HbA1c, HOMA-IR, fasting LDL, fasting HDL, fasting total cholesterol, fasting total cholesterol/HDL ratio, and fasting triglycerides are shown in Table 36.

[1] = All CVC (N = 115), EFV (N = 28), through Week 48
[2] = CVC 100 mg (N = 58), through Week 48
[3] = CVC 200 mg (N = 57), through Week 48

CCCCOCCOc1ccc(-c2ccc3c(c2)/C=C(/C(=O)Nc2ccc([S@@+]([O-])Cc4cncn4CCC)cc2)CCCN3CC(C)C)cc1 [CVC, (S)-8-[4-(2-Butoxyethoxy)phenyl]-1-isobutyl-N-(4-{[(1-propyl-1H-imidazol-5-yl)methyl]sulfinyl}phenyl)-1,2,3,4-tetrahydro-1-benzazocine-5-carboxamide]
Fasting glucose (serum, high) abnormality, any grade [1]: 5 (4%) n (%) | Fasting total cholesterol abnormality, Grade 1 [1]: 5 (4%) n (%) | Fasting total cholesterol abnormality, Grade 2 [1]: 3 (3%) n (%) | Fasting total cholesterol abnormality, Grade 3 [1]: 0 n (%) | Fasting total cholesterol abnormality, Grade 4 [1]: 0 n (%) | Fasting total cholesterol abnormality, any grade [1]: 8 (7%) n (%) | Fasting triglycerides abnormality, Grade 1 [1]: 0 n (%) | Fasting triglycerides abnormality, Grade 2 [1]: 1 (<1%) n (%) | Fasting triglycerides abnormality, Grade 3 [1]: 0 n (%) | Fasting triglycerides abnormality, Grade 4 [1]: 0 n (%) | Fasting triglycerides abnormality, any grade [1]: 1 (<1%) n (%) | Fasting triglycerides, mean change from baseline (All CVC, EFV, Week 4): -5 mg/dL | HOMA-IR, mean change from baseline (All CVC, EFV, Week 4): −0.30 | HbA1c, mean change from baseline (All CVC, EFV, Week 4): −0.03 % Hb | HbA1c, mean change from baseline (All CVC, EFV, Week 12): −0.06 % Hb | HbA1c, mean change from baseline (All CVC, EFV, Week 24): 0.06 % Hb | HbA1c, mean change from baseline (All CVC, EFV, Week 48): 0.10 % Hb | Any fasting laboratory abnormality, worst Grade 1 [2]: 3 (5%) n (%) | Any fasting laboratory abnormality, worst Grade 2 [2]: 1 (2%) n (%) | Any fasting laboratory abnormality, worst Grade 3 [2]: 0 n (%) | Any fasting laboratory abnormality, worst Grade 4 [2]: 0 n (%) | Any graded (Grade 1-4) fasting laboratory abnormality [2]: 4 (7%) n (%) | Fasting LDL cholesterol abnormality, Grade 1 [2]: 1 (2%) n (%) | Fasting LDL cholesterol abnormality, Grade 2 [2]: 1 (2%) n (%) | Fasting LDL cholesterol abnormality, Grade 3 [2]: 0 n (%) | Fasting LDL cholesterol abnormality, Grade 4 [2]: 0 n (%) | Fasting LDL cholesterol abnormality, any grade [2]: 2 (3%) n (%) | Fasting glucose (serum, high) abnormality, Grade 1 [2]: 0 n (%) | Fasting glucose (serum, high) abnormality, Grade 2 [2]: 0 n (%) | Fasting glucose (serum, high) abnormality, Grade 3 [2]: 0 n (%) | Fasting glucose (serum, high) abnormality, Grade 4 [2]: 0 n (%) | Fasting glucose (serum, high) abnormality, any grade [2]: 0 n (%) | Fasting total cholesterol abnormality, Grade 1 [2]: 3 (5%) n (%) | Fasting total cholesterol abnormality, Grade 2 [2]: 0 n (%) | Fasting total cholesterol abnormality, Grade 3 [2]: 0 n (%) | Fasting total cholesterol abnormality, Grade 4 [2]: 0 n (%) | Fasting total cholesterol abnormality, any grade [2]: 3 (5%) n (%) | Fasting triglycerides abnormality, Grade 1 [2]: 0 n (%) | Fasting triglycerides abnormality, Grade 2 [2]: 0 n (%) | Fasting triglycerides abnormality, Grade 3 [2]: 0 n (%) | Fasting triglycerides abnormality, Grade 4 [2]: 0 n (%) | Fasting triglycerides abnormality, any grade [2]: 0 n (%) | change in fasting total cholesterol (mainly LDL cholesterol) (CVC 100 mg and 200 mg, through Week 48): decrease | Fasting triglycerides, mean change from baseline (CVC 100 mg, Week 4): -8 mg/dL | HbA1c, mean change from baseline (CVC 100 mg, Week 4): 0.01 % Hb | HbA1c, mean change from baseline (CVC 100 mg, Week 12): −0.04 % Hb | Fasting triglycerides, mean change from baseline (CVC 100 mg, Week 24): -8 mg/dL | HbA1c, mean change from baseline (CVC 100 mg, Week 24): 0.06 % Hb | HbA1c, mean change from baseline (CVC 100 mg, Week 48): 0.09 % Hb | Any fasting laboratory abnormality, worst Grade 1 [3]: 6 (11%) n (%) | Any fasting laboratory abnormality, worst Grade 2 [3]: 6 (11%) n (%) | Any fasting laboratory abnormality, worst Grade 3 [3]: 0 n (%) | Any fasting laboratory abnormality, worst Grade 4 [3]: 0 n (%) | Any graded (Grade 1-4) fasting laboratory abnormality [3]: 12 (21%) n (%) | Fasting LDL cholesterol abnormality, Grade 1 [3]: 2 (4%) n (%) | Fasting LDL cholesterol abnormality, Grade 2 [3]: 2 (4%) n (%) | Fasting LDL cholesterol abnormality, Grade 3 [3]: 0 n (%) | Fasting LDL cholesterol abnormality, Grade 4 [3]: 0 n (%) | Fasting LDL cholesterol abnormality, any grade [3]: 4 (7%) n (%) | Fasting glucose (serum, high) abnormality, Grade 1 [3]: 3 (5%) n (%) | Fasting glucose (serum, high) abnormality, Grade 2 [3]: 2 (4%) n (%) | Fasting glucose (serum, high) abnormality, Grade 3 [3]: 0 n (%) | Fasting glucose (serum, high) abnormality, Grade 4 [3]: 0 n (%) | Fasting glucose (serum, high) abnormality, any grade [3]: 5 (9%) n (%) | Fasting total cholesterol abnormality, Grade 1 [3]: 2 (4%) n (%) | Fasting total cholesterol abnormality, Grade 2 [3]: 3 (5%) n (%) | Fasting total cholesterol abnormality, Grade 3 [3]: 0 n (%) | Fasting total cholesterol abnormality, Grade 4 [3]: 0 n (%) | Fasting total cholesterol abnormality, any grade [3]: 5 (9%) n (%) | Fasting triglycerides abnormality, Grade 1 [3]: 0 n (%) | Fasting triglycerides abnormality, Grade 2 [3]: 1 (2%) n (%) | Fasting triglycerides abnormality, Grade 3 [3]: 0 n (%) | Fasting triglycerides abnormality, Grade 4 [3]: 0 n (%) | Fasting triglycerides abnormality, any grade [3]: 1 (2%) n (%) | Fasting triglycerides, mean change from baseline (CVC 200 mg, Week 4): -2 mg/dL | HbA1c, mean change from baseline (CVC 200 mg, Week 4): −0.08 % Hb | HbA1c, mean change from baseline (CVC 200 mg, Week 12): −0.08 % Hb | HbA1c, mean change from baseline (CVC 200 mg, Week 24): 0.06 % Hb | Fasting total cholesterol, mean change from baseline (CVC 200 mg, Week 48): -9 mg/dL | HbA1c, mean change from baseline (CVC 200 mg, Week 48): 0.10 % Hb
